Article PMC3855340, “Functional Expression of Human NKCC1 from a Synthetic Cassette-Based cDNA: Introduction of Extracellular Epitope Tags and Removal of Cysteines” (PLoS ONE, 2013)

Target: T1, hNKCC1 (NT17, 3xFlag-YFP-tagged human NKCC1) (Homo sapiens, UniProt P55011)
T1 construct: gene SLC12A2; full-length human NKCC1 from synthetic cDNA with 262 silent mutations; N-terminal 3xFlag and YFP (mVenus) tags kept; pcDNA3.1-neo, stably expressed in HEK-293 cells
T1 sequence (P55011 1-1212): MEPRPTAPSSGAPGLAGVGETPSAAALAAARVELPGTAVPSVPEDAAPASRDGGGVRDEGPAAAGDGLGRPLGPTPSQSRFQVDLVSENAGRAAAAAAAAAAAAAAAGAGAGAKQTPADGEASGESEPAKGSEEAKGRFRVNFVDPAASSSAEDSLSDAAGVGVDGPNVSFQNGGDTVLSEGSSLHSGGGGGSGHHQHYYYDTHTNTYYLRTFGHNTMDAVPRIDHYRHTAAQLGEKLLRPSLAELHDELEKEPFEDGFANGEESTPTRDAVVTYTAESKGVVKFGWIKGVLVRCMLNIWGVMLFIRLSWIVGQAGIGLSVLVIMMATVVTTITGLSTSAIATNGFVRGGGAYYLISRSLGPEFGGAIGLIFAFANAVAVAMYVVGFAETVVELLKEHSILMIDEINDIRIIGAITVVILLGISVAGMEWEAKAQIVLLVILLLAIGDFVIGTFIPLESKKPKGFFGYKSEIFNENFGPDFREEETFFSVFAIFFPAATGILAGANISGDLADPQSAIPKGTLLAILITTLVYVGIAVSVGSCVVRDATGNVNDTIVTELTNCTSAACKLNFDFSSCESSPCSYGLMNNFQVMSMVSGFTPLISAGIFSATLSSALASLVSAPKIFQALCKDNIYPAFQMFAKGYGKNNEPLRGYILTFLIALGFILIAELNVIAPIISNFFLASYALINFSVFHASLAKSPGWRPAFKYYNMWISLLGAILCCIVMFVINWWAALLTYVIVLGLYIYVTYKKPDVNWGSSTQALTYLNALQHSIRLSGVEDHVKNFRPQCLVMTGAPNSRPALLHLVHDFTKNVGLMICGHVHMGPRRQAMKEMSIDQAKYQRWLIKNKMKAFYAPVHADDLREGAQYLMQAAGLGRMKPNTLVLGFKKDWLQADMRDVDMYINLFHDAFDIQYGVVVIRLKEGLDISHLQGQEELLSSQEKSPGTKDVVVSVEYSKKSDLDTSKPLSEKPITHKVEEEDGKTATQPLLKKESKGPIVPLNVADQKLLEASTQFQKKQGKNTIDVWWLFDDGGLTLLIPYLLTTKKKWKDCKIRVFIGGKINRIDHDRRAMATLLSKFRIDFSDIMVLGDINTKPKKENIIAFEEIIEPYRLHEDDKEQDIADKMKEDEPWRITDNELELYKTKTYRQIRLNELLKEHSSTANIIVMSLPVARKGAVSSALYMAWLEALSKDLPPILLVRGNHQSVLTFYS
Test: influx inhibition in transfected HEK-293 cells, single-site fit
Type: cell-based
Settings: read-out: Ki (bumet)

Ki: 460 ± 100 nM
Compound: CCCCNc1cc(C(=O)O)cc(S(N)(=O)=O)c1Oc1ccccc1 [bumetanide]
